For seven compounds, TGI results are on record in PubChem BioAssay (NCI).

Among the test systems are A549 NSCLC; HCT-116 colon; HL-60(TB) leukemia; IGROV1 ovarian; KM12 colon; M14 melanoma; NCI-H226 lung; NCI/ADR-RES ovarian; OVCAR-8 ovarian; PC-3 prostate; RXF 393 renal; SF-539 CNS; SK-MEL-2 melanoma; SNB-75 CNS; SW-620 colon; T-47D breast; U251 CNS; UACC-62 melanoma.
Common to all, as to experiment: growth of human tumour cells (NCI), 48 h

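Following 48 hours of exposure in 96-well plates, responses at five concentrations were used to interpolate endpoints linearly. At the TGI there is no net growth.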 A value given as a limit tells only on which side of the number the result lay.

In the case of `C=CCOc1ccc(C2(c3ccc(OCC=C)cc3)C(=O)Nc3ccccc32)cc1`, the TGI in the experiment on A549 NSCLC, with HCT-116 colon, in the experiment with HL-60(TB) leukemia, in the experiment with IGROV1 ovarian, in the experiment on KM12 colon and in the experiment on M14 melanoma was more than 10 µM throughout. Also, the TGI in the experiment with NCI-H226 lung, in the experiment on NCI/ADR-RES ovarian, in the experiment on OVCAR-8 ovarian, with PC-3 prostate, in the experiment on RXF 393 renal and in the experiment with SF-539 CNS was more than 10 µM throughout. The TGI in the experiment on SK-MEL-2 melanoma, in the experiment on SNB-75 CNS, in the experiment with SW-620 colon, in the experiment with T-47D breast, with U251 CNS and in the experiment with UACC-62 melanoma was more than 10 µM each time.
`N#Cc1nc(Sc2cnsn2)c(Sc2cnsn2)nc1C#N`: the TGI was more than 77.4 µM in the experiment on A549 NSCLC; 17.1 µM with HCT-116 colon; 6.24 µM in the experiment with HL-60(TB) leukemia; 37.3 µM with IGROV1 ovarian; 40.4 µM in the experiment with KM12 colon; 60.7 µM with M14 melanoma. Further, the TGI in the experiment on NCI-H226 lung is 43.7 µM; with NCI/ADR-RES ovarian it was 54.3 µM; in the experiment with OVCAR-8 ovarian it was more than 75.5 µM; with PC-3 prostate, 51 µM; with RXF 393 renal it was 12.3 µM; in the experiment with SF-539 CNS it was 41.4 µM. The TGI in the experiment with SK-MEL-2 melanoma is 47 µM; with SNB-75 CNS it was 48.8 µM; with SW-620 colon it was more than 22.5 µM; in the experiment on T-47D breast it was more than 27.6 µM; in the experiment on U251 CNS it was more than 90.1 µM; with UACC-62 melanoma, 32.5 µM.
Turning to `CC(=O)Nc1ccc(-c2nc3ccccc3s2)cc1Cl`, the TGI with A549 NSCLC, in the experiment with HCT-116 colon, with HL-60(TB) leukemia, in the experiment with IGROV1 ovarian, in the experiment with KM12 colon and in the experiment with M14 melanoma was more than 100 µM each time. Also, the TGI is more than 100 µM in the experiment on NCI-H226 lung; more than 100 µM in the experiment with NCI/ADR-RES ovarian; more than 100 µM in the experiment on OVCAR-8 ovarian; more than 100 µM in the experiment on PC-3 prostate; 90.3 µM in the experiment on RXF 393 renal; more than 100 µM in the experiment on SF-539 CNS. Besides, the TGI with SK-MEL-2 melanoma, in the experiment on SNB-75 CNS, in the experiment with SW-620 colon, in the experiment on T-47D breast, with U251 CNS and in the experiment with UACC-62 melanoma was more than 100 µM each time.
Regarding `CC(C)Oc1c(C2(c3ccccc3O)SCCCS2)c(=O)c1=O`, the TGI with A549 NSCLC, in the experiment on HCT-116 colon, with HL-60(TB) leukemia, in the experiment on IGROV1 ovarian, in the experiment with KM12 colon and in the experiment with M14 melanoma was more than 100 µM in each case. Also, the TGI with NCI-H226 lung, in the experiment on NCI/ADR-RES ovarian, in the experiment on OVCAR-8 ovarian, in the experiment on PC-3 prostate, with RXF 393 renal and with SF-539 CNS was more than 100 µM each time. Besides, the TGI in the experiment on SK-MEL-2 melanoma, in the experiment with SNB-75 CNS, with SW-620 colon, in the experiment on T-47D breast, in the experiment on U251 CNS and with UACC-62 melanoma was more than 100 µM each time.
As to `N#Cc1c(N)c2c(c(-c3ccccc3)c1-c1ccccc1)C(=O)N(Nc1ccccc1)C2=O`, the TGI in the experiment with A549 NSCLC was more than 100 µM; with HCT-116 colon it was 43.7 µM; in the experiment on HL-60(TB) leukemia, more than 100 µM; in the experiment with IGROV1 ovarian it was more than 100 µM; with KM12 colon, 56.4 µM; in the experiment on M14 melanoma, 87.4 µM. Besides, the TGI in the experiment with NCI-H226 lung is more than 100 µM; with NCI/ADR-RES ovarian, more than 100 µM; in the experiment with OVCAR-8 ovarian it was more than 100 µM; in the experiment on PC-3 prostate it was more than 100 µM; in the experiment with RXF 393 renal, 65.2 µM; in the experiment on SF-539 CNS, more than 100 µM. Moreover, the TGI was more than 100 µM with SK-MEL-2 melanoma; more than 100 µM in the experiment on SNB-75 CNS; more than 100 µM in the experiment on SW-620 colon; 71 µM with T-47D breast; more than 100 µM in the experiment with U251 CNS; more than 100 µM in the experiment with UACC-62 melanoma.
With `COc1ccc(C2C3=C(COC3=O)OC(C)(C)Oc3cc4c(cc32)OCO4)cc1` (stereo unspecified), the TGI is more than 100 µM in the experiment on A549 NSCLC; more than 85.4 µM in the experiment with HCT-116 colon; more than 61.3 µM in the experiment on HL-60(TB) leukemia; more than 100 µM in the experiment on IGROV1 ovarian; more than 81 µM in the experiment with KM12 colon; more than 100 µM in the experiment on M14 melanoma. Also, the TGI was 99.2 µM in the experiment on NCI-H226 lung; more than 81.6 µM with NCI/ADR-RES ovarian; more than 100 µM in the experiment with OVCAR-8 ovarian; 73.4 µM with PC-3 prostate; 79 µM with RXF 393 renal; more than 72.7 µM with SF-539 CNS. Also, the TGI in the experiment with SK-MEL-2 melanoma was more than 100 µM; in the experiment on SNB-75 CNS, 23 µM; in the experiment with SW-620 colon, more than 100 µM; with T-47D breast it was more than 87.4 µM; in the experiment on U251 CNS, more than 100 µM; with UACC-62 melanoma it was more than 66.6 µM.
With `Cc1ccc(-c2cn3c(nc4ccccc43)c(-c3ccccc3)n2)cc1`, the TGI in the experiment with A549 NSCLC, with HCT-116 colon, in the experiment with HL-60(TB) leukemia, with IGROV1 ovarian, in the experiment with KM12 colon and in the experiment with M14 melanoma was more than 100 µM throughout. Besides, the TGI in the experiment with NCI-H226 lung was more than 100 µM; with NCI/ADR-RES ovarian, more than 100 µM; with OVCAR-8 ovarian it was more than 100 µM; in the experiment with PC-3 prostate it was more than 100 µM; in the experiment on RXF 393 renal, more than 61.3 µM; with SF-539 CNS, more than 100 µM. Also, the TGI in the experiment with SK-MEL-2 melanoma is 58.3 µM; with SNB-75 CNS, more than 47.7 µM; in the experiment on SW-620 colon it was more than 100 µM; in the experiment with T-47D breast it was more than 91.7 µM; in the experiment with U251 CNS, more than 66.6 µM; in the experiment on UACC-62 melanoma it was more than 72.5 µM.
